In patent US20250019387A1 (Frontier Medicines Corporation, priority 0001, published 2025):
Read-outs that look alike come from different tables or passages of the source.

Molecular target: KRAS G12C and cRAF (Ras-binding domain) interaction (Homo sapiens (Human), UniProt P01116, C118S/C51S/C80L/G12C)
Assay: Inhibition of KRAS G12C and cRAF binding (AlphaScreen)
How it was run: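 Compounds (DMSO) preincubated 19-20 h at room temperature, then RBD with streptavidin donor and glutathione acceptor beads added in 25 mM Hepes pH 7.4, 150 mM NaCl, 5 mM MgCl2, 0.01% Triton X-100, 2% DMSO for 60-90 min. Emission 570 nm (excitation 680 nm); IC50 by 4-parameter fit. Counter-screen used biotin-AviTag-GST instead of RBD.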

[1] = additional exemplary compounds, KRAS G12C and cRAF binding, read-out: RAF1 RBD IC50
[2] = GMPPNP-loaded KRAS G12C, 19-20 hours incubation with compound, read-out: IC50 (Inhibition of KRAS G12C and cRAF Binding)

Chain of KRAS G12C and cRAF (Ras-binding domain) interaction (P01116 other isoform, or with tags, fused parts or gaps G12C/C51S/C80L/C118S): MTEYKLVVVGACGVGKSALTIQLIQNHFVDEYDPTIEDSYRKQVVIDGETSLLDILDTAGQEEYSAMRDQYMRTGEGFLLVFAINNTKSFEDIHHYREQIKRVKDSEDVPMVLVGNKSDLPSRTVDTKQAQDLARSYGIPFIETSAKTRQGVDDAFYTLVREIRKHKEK

Row | Compound | IC50 [1] | IC50 [2]
1 | C/C=C/C(=O)CN(C)c1nc(OC[C@@H]2CCCN2C)nc2c1CCN(c1cccc3ccccc13)C2 | > 0.5 µM | –
2 | CN(C)C(=O)/C=C/C(=O)N1CC(CN(C)c2nc(OCC34CCCN3CCC4)nc3c2CCN(c2cccc4cccc(Cl)c24)C3)C1 | > 0.5 µM | –
3 | C=CC(=O)CCN(C)c1nc(OC[C@@H]2CCCN2C)nc2c1CCN(c1cccc3cccc(Cl)c13)C2 | 0.01 to 0.1 µM | –
4 | CN(C)C(=O)/C=C/C(=O)N1CC(CN(C)c2nc(OCC34CCCN3CCC4)nc3c(F)c(-c4cccc5cccc(Cl)c45)ncc23)C1 | > 0.5 µM | –
5 | C=CC(=O)CCCN(C)c1nc(OC[C@@H]2CCCN2C)nc2c1CCN(c1cccc3cccc(Cl)c13)C2 | < 0.01 µM | –
6 | C=CS(=O)(=O)C1CCC(N(C)c2nc(OCC34CCCN3CCC4)nc3c2CCN(c2cccc4cccc(Cl)c24)C3)C1 (stereo not shown) | 0.01 to 0.1 µM | –
7 | C=CC(=O)CCOc1nc(OC[C@@H]2CCCN2C)nc2c1CCN(c1cccc3ccccc13)C2 | > 0.5 µM | –
8 | CN(C)C/C=C/S(=O)(=O)CCN(C)c1nc(OCC23CCCN2CCC3)nc2c1CCN(c1cccc3ccc(F)c(Cl)c13)C2 | < 0.01 µM | –
9 | C=CC(=O)COc1nc(OC[C@@H]2CCCN2C)nc2c1CCN(c1cccc3ccccc13)C2 | > 0.5 µM | –
10 | CN(C)C/C=C/C(=O)N1CC(CN(C)c2nc(OCC34CCCN3CCC4)nc3c(F)c(-c4cccc5cccc(Cl)c45)ncc23)C1 | 0.01 to 0.1 µM | –
11 | C=CC(=O)CCNc1nc(OC[C@@H]2CCCN2C)nc2c1CCN(c1cccc3ccccc13)C2 | > 0.5 µM | –
12 | CCN(C/C=C/S(=O)(=O)CCN(C)c1nc(OCC23CCCN2CCC3)nc2c(F)c(-c3cccc4cccc(Cl)c34)ncc12)CCOC | 0.01 to 0.1 µM | –
13 | C=CC(=O)[C@@H]1CC[C@H]1Nc1nc(OC[C@@H]2CCCN2C)nc2c1CCN(c1cccc3ccccc13)C2 | > 0.5 µM | –
14 | C=CC(=O)N1CCC[C@@H](N(C)c2nc(OC[C@@]34CCCN3C[C@H](F)C4)nc3c2CCN(c2cccc4cccc(Cl)c24)C3)C1 | > 0.5 µM | –
15 | C=CC(=O)N1CC[C@@H](N(C)c2nc(OC[C@@]34CCCN3C[C@H](F)C4)nc3c(F)c(-c4cccc5cccc(Cl)c45)ncc23)C1 | 0.01 to 0.1 µM | –
16 | C=CC(=O)N1C[C@H](C)C[C@H](Nc2nc(OC[C@@]34CCCN3C[C@H](F)C4)nc3c(F)c(-c4cccc5cccc(Cl)c45)ncc23)C1 | > 0.5 µM | –
17 | C=CC(=O)N1CC[C@H](F)[C@@H](N(C)c2nc(OC[C@@]34CCCN3C[C@H](F)C4)nc3c(F)c(-c4cccc5cccc(Cl)c45)ncc23)C1 | > 0.5 µM | –
18 | Cc1cc(/C=C/C(=O)N2CCC[C@@H](N(C)c3nc(OC[C@@]45CCCN4C[C@H](F)C5)nc4c(F)c(-c5cccc6cccc(Cl)c56)ncc34)C2)nc(C)n1 | > 0.5 µM | –
19 | C#Cc1c(F)ccc2cccc(-c3ncc4c(N(C)[C@@H]5CCCN(C(=O)/C=C/c6cc(C)nc(C)n6)C5)nc(OC[C@@]56CCCN5C[C@H](F)C6)nc4c3F)c12 | 0.1 to 0.5 µM | –
20 | C=CC(=O)N1CC[C@H](C)[C@H](Nc2nc(OC[C@@]34CCCN3C[C@H](F)C4)nc3c(F)c(-c4cccc5cccc(Cl)c45)ncc23)C1 | > 0.5 µM | –
21 | C=CC(=O)N1CC[C@H](O)[C@@H](N(C)c2nc(OC[C@@]34CCCN3C[C@H](F)C4)nc3c(F)c(-c4cccc5cccc(Cl)c45)ncc23)C1 | 0.01 to 0.1 µM | –
22 | C=CC(=O)N1CC[C@@H](F)[C@@H](N(C)c2nc(OC[C@@]34CCCN3C[C@H](F)C4)nc3c(F)c(-c4cccc5cccc(Cl)c45)ncc23)C1 | > 0.5 µM | –
23 | C=CC(=O)N1CCC(CNc2nc(OC[C@@]34CCCN3C[C@H](F)C4)nc3c(F)c(-c4cccc5cccc(Cl)c45)ncc23)C1 (stereo partly shown) | > 0.5 µM | –
24 | Cc1noc(/C=C/C(=O)NCCN(C)c2nc(OCC34CCCN3CCC4)nc3c2CCN(c2cccc4cccc(Cl)c24)C3)n1 | 0.1 to 0.5 µM | –
25 | C=CC(=O)N1CCCC1CNc1nc(OC[C@@]23CCCN2C[C@H](F)C3)nc2c(F)c(-c3cccc4cccc(Cl)c34)ncc12 (stereo partly shown) | > 0.5 µM | –
26 | Cc1nc(/C=C/C(=O)NCCN(C)c2nc(OCC34CCCN3CCC4)nc3c2CCN(c2cccc4cccc(Cl)c24)C3)no1 | > 0.5 µM | –
27 | C=CC(=O)N1CC[C@@H](O)[C@H](N(C)c2nc(OC[C@@]34CCCN3C[C@H](F)C4)nc3c(F)c(-c4cccc5cccc(Cl)c45)ncc23)C1 | > 0.5 µM | –
28 | CN(CCS(=O)(=O)/C=C/CN1CCC(F)(F)C1)c1nc(OCC23CCCN2CCC3)nc2c1CCN(c1cccc3cccc(Cl)c13)C2 | > 0.5 µM | –

Row | Compound | IC50 [1] | IC50 [2]
29 | C=CC(=O)N1CCC(CN(C)c2nc(OC[C@@]34CCCN3C[C@H](F)C4)nc3c(F)c(-c4cccc5cccc(Cl)c45)ncc23)C1 (stereo partly shown) | > 0.5 µM | –
30 | CN(c1nc(OCC23CCCN2CCC3)nc2c1CCN(c1cccc3cccc(Cl)c13)C2)[C@@H]1CCN(C(=O)/C=C/CN2CC(F)(F)C2)C1 | 0.1 to 0.5 µM | –
31 | C#Cc1c(F)ccc2cccc(-c3ncc4c(N(C)[C@H]5CCN(C(=O)C=C)C5)nc(OC[C@@]56CCCN5C[C@H](F)C6)nc4c3F)c12 | 0.1 to 0.5 µM | –
32 | CN1CCC[C@H]1COc1nc(N(C)[C@@H]2CCN(C(=O)/C=C/CN3CC(F)(F)C3)C2)c2cnc(-c3cccc4cccc(Cl)c34)c(F)c2n1 | 0.1 to 0.5 µM | –
33 | C=CC(=O)N1C[C@H](C)C[C@@H](Nc2nc(OC[C@@]34CCCN3C[C@H](F)C4)nc3c(F)c(-c4cccc5cccc(Cl)c45)ncc23)C1 | > 0.5 µM | –
34 | CN(c1nc(OCC23CCCN2CCC3)nc2c1CCN(c1cccc3ccc(F)c(Cl)c13)C2)[C@@H]1CCN(C#N)C1 | 0.01 to 0.1 µM | –
35 | C=CC(=O)N1CCCC1CN(C)c1nc(OC[C@@]23CCCN2C[C@H](F)C3)nc2c(F)c(-c3cccc4cccc(Cl)c34)ncc12 (stereo partly shown) | > 0.5 µM | –
36 | CN(C)C/C=C/C(=O)N1CC[C@@H](N(C)c2nc(OCC34CCCN3CCC4)nc3c(F)c(-c4cccc5cccc(Cl)c45)ncc23)C1 | 0.01 to 0.1 µM | –
37 | C#Cc1c(F)ccc2cccc(-c3ncc4c(N(C)[C@H]5CCN(C(=O)C=C)C5)nc(OC[C@]56CCCN5C[C@H](F)C6)nc4c3F)c12 | > 0.5 µM | –
38 | CN(C)C/C=C/S(=O)(=O)CCN(C)c1nc(OC[C@@]23CCCN2C[C@H](F)C3)nc2c1CCN(c1cccc3cccc(Cl)c13)C2 | < 0.01 µM | –
39 | CN(C)C/C=C/C(=O)N1CC[C@@H](N(C)c2nc(OCC34CCCN3CCC4)nc3c2CCN(c2cccc4ccc(F)c(Cl)c24)C3)C1 | 0.1 to 0.5 µM | –
40 | CCN(C/C=C/S(=O)(=O)CCN(C)c1nc(OCC23CCCN2CCC3)nc2c1CCN(c1cccc3cccc(Cl)c13)C2)CCOC | 0.01 to 0.1 µM | –
41 | C=CC(=O)N1CCC[C@@H](N(C)c2nc(OC[C@@]34CCCN3C[C@H](F)C4)nc3c(F)c(-c4cccc5cccc(Cl)c45)ncc23)C1 | > 0.5 µM | –
42 | C=CC(=O)N1CC[C@@H](N(C)c2nc(OCC34CCCN3CCC4)nc3c2CCN(c2cccc4ccc(F)c(Cl)c24)C3)C1 | 0.1 to 0.5 µM | –
43 | C=CC(=O)N1CC(CN(C)c2nc(OC[C@@]34CCCN3C[C@H](F)C4)nc3c(F)c(-c4cccc5cccc(Cl)c45)ncc23)C1 | 0.01 to 0.1 µM | –
44 | C=CC(=O)N1CC[C@@H](N(C)c2nc(OC[C@@]34CCCN3C[C@H](F)C4)nc3c2CCN(c2cccc4ccc(F)c(Cl)c24)C3)C1 | 0.01 to 0.1 µM | –
45 | CN(CCS(=O)(=O)/C=C/CN1CC(F)(F)C1)c1nc(OC[C@@H]2CCCN2C)nc2c(F)c(-c3cccc4cccc(Cl)c34)ncc12 | > 0.5 µM | –
46 | CN(c1nc(OC[C@@]23CCCN2C[C@H](F)C3)nc2c(F)c(-c3cccc4cccc(Cl)c34)ncc12)[C@@H]1CCN(C#N)C1 | 0.01 to 0.1 µM | –
47 | CN(C)C/C=C/C(=O)N1CC(CN(C)c2nc(OCC34CCCN3CCC4)nc3c2CCN(c2cccc4cccc(Cl)c24)C3)C1 | 0.1 to 0.5 µM | –
48 | CN(c1nc(OCC23CCCN2CCC3)nc2c1CCN(c1cccc3cccc(Cl)c13)C2)[C@@H]1CCN(C(=O)/C=C/CN2CC(F)C2)C1 | 0.01 to 0.1 µM | –
49 | CCN(CC)C/C=C/S(=O)(=O)CCN(C)c1nc(OCC23CCCN2CCC3)nc2c(F)c(-c3cccc4cccc(Cl)c34)ncc12 | < 0.01 µM | –
50 | COCCN(C)C/C=C/S(=O)(=O)CCN(C)c1nc(OCC23CCCN2CCC3)nc2c(F)c(-c3cccc4cccc(Cl)c34)ncc12 | 0.01 to 0.1 µM | –
51 | C=CC(=O)C1[C@H]2CCN(c3nc(OC[C@@H]4CCCN4C)nc4c3CCN(c3cccc5cccc(Cl)c35)C4)C[C@@H]12 (stereo in doubt) [Example 43] | – | 0.01 to 0.1 µM
52 | COC(=O)/C=C/C(=O)NCCN(C)c1nc(OC[C@@H]2CCCN2C)nc2c1CCN(c1cccc3ccc(F)c(Cl)c13)C2 [Example 1, methyl(S,E)-4-((2-((7-(8-chloro-7-fluoronaphthalen-1-yl)-2-((1-methylpyrrolidin-2-yl)methoxy)-5,6,7,8-tetrahydropyrido[3,4-d]pyrimidin-4-yl)(methyl)amino)ethyl)amino)-4-oxobut-2-enoate] | – | 0.01 to 0.1 µM
53 | COC(=O)/C=C/C(=O)N1CCC(N(C)c2nc(OC[C@@H]3CCCN3C)nc3c2CCN(c2cccc4ccc(F)c(Cl)c24)C3)C1 (stereo partly drawn) [Example 2, methyl(E)-4-(3-((7-(8-chloro-7-fluoronaphthalen-1-yl)-2-(((S)-1-methylpyrrolidin-2-yl)methoxy)-5,6,7,8-tetrahydropyrido[3,4-d]pyrimidin-4-yl)(methyl)amino)pyrrolidin-1-yl)-4-oxobut-2-enoate] | – | 0.01 to 0.1 µM
54 | COC(=O)/C=C/C(=O)N1CC[C@@H](N(C)c2nc(OC[C@@H]3CCCN3C)nc3c2CCN(c2cccc4ccc(F)c(Cl)c24)C3)C1 [Example 3, methyl(E)-4-((R)-3-((7-(8-chloro-7-fluoronaphthalen-1-yl)-2-(((S)-1-methylpyrrolidin-2-yl)methoxy)-5,6,7,8-tetrahydropyrido[3,4-d]pyrimidin-4-yl)(methyl)amino)pyrrolidin-1-yl)-4-oxobut-2-enoate] | – | 0.01 to 0.1 µM
55 | COC(=O)/C=C/C(=O)N1C[C@@H](N(C)c2nc(OC[C@@H]3CCCN3C)nc3c2CCN(c2cccc4cccc(Cl)c24)C3)C[C@@H]1C [Example 4, methyl(E)-4-((2S,4S)-4-((7-(8-chloronaphthalen-1-yl)-2-(((S)-1-methylpyrrolidin-2-yl)methoxy)-5,6,7,8-tetrahydropyrido[3,4-d]pyrimidin-4-yl)(methyl)amino)-2-methylpyrrolidin-1-yl)-4-oxobut-2-enoate] | – | > 0.5 µM
